Results reported in US5932733A, “3-amino-2-oxo-1-piperidineacetic derivatives containing an arginine mimic as enzyme inhibitors” (Corvas International, Inc., priority 1995, dated 1999).
pIC50: −log10 of the molar value.

How the values were obtained:
[1] = tested on: trypsin, plasmin and kallikrein; conditions: Markwardt et al. 1972, inhibiting trypsin; cited from earlier work
[2] = literature report; cited from earlier work
[3] = Markwardt et al. 1972; cited from earlier work
alpha-thrombin = alpha-thrombin (Homo sapiens, UniProt P00734); test: In vitro enzyme assay for specificity: thrombin amidolytic activity; type: biochemical; conditions: 0.25 nM enzyme, 30 min preincubation, pH 7.5, mean of at least two experiments
human plasma = test: Ex vivo anticoagulant effect, activated partial thromboplastin time (APTT) in human plasma; type: biochemical; conditions: citrated human plasma; control 29 seconds; mean of two independent determinations
Description: (§1) The control clotting times (0 inhibitor) for rat and human plasma were 19 seconds and 29 seconds, respectively. The concentration of BzlSO2 -norVal(cyclo)-Gly-Ala(3-guanPip)-al which caused a doubling of the control clotting time in rat and human plasma was 12.7 micromolar and 9.1 micromolar, respectively. The data is the mean of two independent determinations.
(§2) Fresh frozen citrated pooled normal human plasma was obtained from George King Biomedical, Overland Park, KA. Pooled normal rat plasma was prepared from citrated whole blood collected from anesthetized rats using standard procedures. The plasma was flash frozen and stored at-80° C. until use. Measurements APTT was made using the Coag-A-Mate RA4 automated coagulometer (General Diagnostics, Organon Technica, Oklahoma City, Okla.) using the Automated APTT reagent (Organon Technica, Durham, N.C.) as the initiator of clotting according to the manufacturers instructions. The assay was conducted by making a series of dilution's of Isomer B in rapidly thawed plasma followed by adding 200 microliters to the wells of the assay carousel.

rat plasma = test: Ex vivo anticoagulant effect, activated partial thromboplastin time (APTT) in rat plasma; type: biochemical; conditions: citrated rat plasma; control 19 seconds; mean of two independent determinations
Description: as §1, §2

[4] = tested on: FeCl3-induced platelet-dependent arterial thrombosis; test: Rat model of FeCl3-induced platelet-dependent arterial thrombosis; type: in vivo; conditions: single i.v. bolus, n=6, saline 6/6
Description: Kurz, K. D., Main, B. W., and Sandusky, G. E., Thromb. […] In this model a platelet-rich, occlusive thrombus is formed in a segment of the rat carotid artery treated locally with a fresh solution of FeCl3 absorbed to a piece of filter paper. The FeCl3 is thought to diffuse into the treated segment of artery and causes de-endothelialization of the affected vessel surface. […] The effect of a test compound on the incidence of occlusive thrombus formation following the application of the FeCl3 is monitored by ultrasonic flowtometry and is used as the primary end point. The use of flowtometry to measure carotid artery blood flow, is a modification of the original procedure in which thermal detection of clot formation was employed. Kurz, K. D., Main, B. W., and Sandusky, G. E., Thromb. […] The animals were prepared, anesthetized with Nembutal followed by the insertion of catheters for blood pressure monitoring, drug and anesthesia delivery. The left carotid artery was isolated by making a midline cervical incision followed by blunt dissection and spreading techniques to separate a 2 cm segment of the vessel from the carotid sheath. A silk suture is inserted under the proximal and distal ends of the isolated vessel to provide clearance for the placement of a ultrasonic flow probe (Transonic) around the proximal end of the vessel. The probe is then secured with a stationary arm. […] The test compound was administered as a single intravenous bolus at the doses outlined in Table 3 after placement of the flow probe and 5 minutes prior to the thrombogenic stimulus.

Plasmin = Plasmin (Homo sapiens, UniProt P00747); test: In vitro enzyme assay for specificity: plasmin; type: biochemical; conditions: 1.0 nM enzyme, 30 min preincubation, pH 7.5; mean of at least two experiments
Description: Plasmin catalytic activity was determined using the chromogenic substrate, S-2251 [D-valyl-L-leucyl-L-lysine-p-nitroanilide], which was obtained from Kabi Diagnostica.

aPC = molecular target: T1, aPC (Homo sapiens, UniProt P04070); test: In vitro enzyme assay for specificity: activated protein C; type: biochemical; conditions: 1.0 nM enzyme, 30 min preincubation, pH 7.5; mean of at least two experiments
T1 construct: purchased Hematologic Technologies, Inc
Description: Activated Protein C (aPC)
aPC catalytic activity was determined using the chromogenic substrate, Pefachrome PC (delta-carbobenzloxy-D-lysine-L-prolyl-L-arginine-p-nitroanilide), obtained from Pentapharm Ltd.). […] Purified human aPC was obtained from Hematologic Technologies, Inc. The enzyme was diluted into HBSA prior to assay in which the final concentration was 1.0 nM.

Chymotrypsin = Chymotrypsin (Bos taurus, UniProt P00766); test: In vitro enzyme assay for specificity: chymotrypsin; type: biochemical, bovine; conditions: 1.0 nM enzyme, 30 min preincubation, pH 7.5; mean of at least two experiments
Description: Chymotrypsin catalytic activity was determined using the chromogenic substrate, S-2586 (methoxy-succinyl-L-arginine-L-prolyl-L-tyrosyl-p-nitroanilide), which was obtained from Kabi Diagnostica. […] Purified (3×-crystallized;CDI) bovine pancreatic alpha-chymotrypsin was obtained from Worthington Biochemical Corp. The enzyme was reconstituted in deionized water and diluted into HBSA prior to assay in which the final concentration was 1.0 nM.

Trypsin = molecular target: T2, Trypsin (Bos taurus, UniProt P00760); test: In vitro enzyme assay for specificity: trypsin; type: biochemical, bovine; conditions: 0.5 nM enzyme, 30 min preincubation, pH 7.5; mean of at least two experiments
T2 sequence (P00760 24-246): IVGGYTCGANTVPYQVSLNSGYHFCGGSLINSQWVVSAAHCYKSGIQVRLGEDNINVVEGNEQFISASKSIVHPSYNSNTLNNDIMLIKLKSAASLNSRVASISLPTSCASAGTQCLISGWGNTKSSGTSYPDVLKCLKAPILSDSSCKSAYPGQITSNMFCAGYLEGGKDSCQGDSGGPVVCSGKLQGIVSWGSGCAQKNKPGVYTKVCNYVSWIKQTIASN
Description: Trypsin catalytic activity was determined using the chromogenic substrate, S-2222 (benzoyl-L-isoleucine-L-glutamic acid- (gamma-methyl ester)-L-arginine-p-nitroanilide), which was obtained from Kabi Diagnostica. […] Purified (3×-crystallized; TRL3) bovine pancreatic trypsin was obtained from Worthington Biochemical Corp. The enzyme was reconstituted in deionized water and diluted into HBSA prior to assay in which the final concentration was 0.5 nM.

rt-PA = molecular target: T3, rt-PA (Homo sapiens, UniProt P00750); test: In vitro enzyme assay for specificity: recombinant tissue plasminogen activator; type: biochemical; conditions: 1.0 nM enzyme, 30 min preincubation, pH 7.5; mean of at least two experiments
T3 construct: purchased Genentech Inc
Description: Recombinant tissue plasminogen activator (rt-PA)

T1 sequence (P04070 43-197 limits assumed): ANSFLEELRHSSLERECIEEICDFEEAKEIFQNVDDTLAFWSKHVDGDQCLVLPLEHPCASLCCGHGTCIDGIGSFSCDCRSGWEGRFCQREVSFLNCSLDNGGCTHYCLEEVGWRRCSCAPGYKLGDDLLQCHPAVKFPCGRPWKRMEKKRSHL
T1 sequence (P04070 212-461 limits assumed): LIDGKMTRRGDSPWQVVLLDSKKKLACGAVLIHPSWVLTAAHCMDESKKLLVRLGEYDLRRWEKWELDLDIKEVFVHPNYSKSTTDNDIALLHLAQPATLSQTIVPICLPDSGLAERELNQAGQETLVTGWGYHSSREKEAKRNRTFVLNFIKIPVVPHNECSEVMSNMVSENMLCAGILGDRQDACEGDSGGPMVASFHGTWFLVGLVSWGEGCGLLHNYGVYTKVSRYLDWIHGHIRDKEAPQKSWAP
Chain of Plasmin (P00747 97-580 limits assumed): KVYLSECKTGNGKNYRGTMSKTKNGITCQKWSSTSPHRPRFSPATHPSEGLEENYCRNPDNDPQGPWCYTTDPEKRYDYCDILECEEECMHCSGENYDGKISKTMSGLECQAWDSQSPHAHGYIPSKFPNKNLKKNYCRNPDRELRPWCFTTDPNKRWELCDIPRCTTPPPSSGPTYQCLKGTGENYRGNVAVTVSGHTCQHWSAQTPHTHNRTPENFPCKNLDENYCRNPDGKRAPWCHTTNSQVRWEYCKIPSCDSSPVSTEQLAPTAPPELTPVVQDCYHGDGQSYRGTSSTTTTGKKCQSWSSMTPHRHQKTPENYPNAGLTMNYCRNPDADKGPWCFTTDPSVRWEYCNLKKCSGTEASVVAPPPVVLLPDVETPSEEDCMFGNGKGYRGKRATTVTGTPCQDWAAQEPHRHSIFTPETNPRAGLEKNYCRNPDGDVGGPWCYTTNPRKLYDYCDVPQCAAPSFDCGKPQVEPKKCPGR
Chain of Plasmin (P00747 581-810 limits assumed): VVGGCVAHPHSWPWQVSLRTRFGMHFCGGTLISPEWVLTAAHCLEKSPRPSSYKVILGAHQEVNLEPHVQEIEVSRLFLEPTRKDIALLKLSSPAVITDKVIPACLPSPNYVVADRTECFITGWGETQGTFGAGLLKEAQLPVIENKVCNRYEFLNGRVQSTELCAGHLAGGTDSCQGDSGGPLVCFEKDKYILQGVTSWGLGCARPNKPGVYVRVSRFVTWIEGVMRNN
T3 sequence (P00750 36-562): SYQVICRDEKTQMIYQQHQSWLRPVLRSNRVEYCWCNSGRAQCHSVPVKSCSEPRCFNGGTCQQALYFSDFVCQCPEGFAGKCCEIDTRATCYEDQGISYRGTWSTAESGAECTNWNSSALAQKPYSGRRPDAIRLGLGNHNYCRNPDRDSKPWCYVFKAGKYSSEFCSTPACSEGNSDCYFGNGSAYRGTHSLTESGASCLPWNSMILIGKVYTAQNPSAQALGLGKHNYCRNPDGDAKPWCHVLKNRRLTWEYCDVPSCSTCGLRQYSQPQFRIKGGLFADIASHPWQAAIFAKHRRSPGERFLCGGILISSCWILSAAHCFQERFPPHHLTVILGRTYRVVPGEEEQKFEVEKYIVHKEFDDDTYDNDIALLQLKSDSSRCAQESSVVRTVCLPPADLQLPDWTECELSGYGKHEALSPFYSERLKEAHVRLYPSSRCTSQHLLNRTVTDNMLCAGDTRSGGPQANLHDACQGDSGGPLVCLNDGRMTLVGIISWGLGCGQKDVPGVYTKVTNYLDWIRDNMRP

Row | pIC50 (Plasmin) | pIC50 (aPC) | pIC50 (Chymotrypsin) | pIC50 (Trypsin) | Compound | pIC50 (alpha-thrombin) | also measured
1 | – | – | – | – | N=C(N)c1ccc(CC(=O)C(=O)O)cc1 [APPA, 4-amidinophenylpyruvic acid] | – | selectivity of thrombin inhibition [1]: non-selective, inhibiting trypsin, plasmin and kallikrein; toxicity [2]: low toxicity; pharmacokinetics [3]: favourable pharmacokinetics
2 | – | – | – | – | N=C(N)N1CCCC(C[C@@H](C=O)NC(=O)CN2CCC[C@H](NS(=O)(=O)Cc3ccccc3)C2=O)C1 (single isomer, unassigned) [Isomer B, benzylsulfonyl-norval(cyclo)-Gly-3-[3-piperidyl-(N-guanidino)]-L-alaninal] | 9.10 | concentration which caused a doubling of the control clotting time (APTT) (human plasma): 9.1 µM; concentration which caused a doubling of the control clotting time (APTT) (rat plasma): 12.7 µM; Incidence of Occlusion ([4]; 0.3 mg/kg): 6/6; Incidence of Occlusion ([4]; 1.0 mg/kg): 4/6; Incidence of Occlusion ([4]; 3.0 mg/kg, * p ≤ 0.05 from saline control by Fishers test): 0/6
3 | < 5.60 | < 5.60 | < 5.60 | 4.95 | N=C(N)N1CCCC(C[C@@H](C=O)NC(=O)CN2CCCC[C@H](NS(=O)(=O)Cc3ccccc3)C2=O)C1 (single isomer, unassigned) [C, N-(BnSO2-norLeu(cyclo)-Gly)-3-[3-piperidyl-(N-guanidino)]alaninal] | – | –
4 | < 5.60 | < 5.60 | < 5.60 | 4.46 | N=C(N)N1CCCC(C[C@@H](C=O)NC(=O)CN2CCCC[C@H](NS(=O)(=O)Cc3ccccc3)C2=O)C1 (single isomer, unassigned) [D, N-(BnSO2-norLeu(cyclo)-Gly)-3-[3-piperidyl-(N-guanidino)]alaninal] | – | –

Row | Compound | pIC50 (Plasmin) | pIC50 (aPC) | pIC50 (Chymotrypsin) | pIC50 (Trypsin) | pIC50 (alpha-thrombin) | also measured
5 | N=C(N)N1CCCC(C[C@@H](C=O)NC(=O)CN2CCC[C@H](NS(=O)(=O)Cc3ccccc3)C2=O)C1 (single isomer, unassigned) [A, benzylsulfonyl-norval(cyclo)-Gly-3-[3-piperidyl-(N-guanidino)]-L-alaninal] | < 5.60 | < 4.60 | < 4.60 | < 4.60 | 7.54 | pIC50 (rt-PA): < 4.60
